Data as given in paper PMC5612938, “A multiple biomarker assay for quality assessment of botanical drugs using a versatile microfluidic chip” (Scientific Reports, 2017).
Where a name gives a salt, the structure may show the parent alone. Marks after values point to notes of the source that are not given here.

Tests used:
[1] = biological target: T1, Thrombin (from human plasma) (Homo sapiens, UniProt P00734); assay: on-chip thrombin inhibition assay (S-2238 hydrolysis, absorbance 405 nm); assay type: biochemical; conditions: for thrombin
T1 construct: Thrombin (from human plasma); purchased Sigma-Aldrich; host or cells: human plasma
Method: To enhance the performance of the on-chip assay, experimental parameters such as concentrations of enzymes and substrates, substrate reaction time, and incubation time of samples and enzymes were stepwise optimized. The activity of thrombin was determined by measuring the hydrolysis of chromogenic substrate S-2238 (HD-Phe-Pip-Arg-pNA) at 405 nm. As depicted in Fig. 2a, the absorbance increased rapidly along with the elevated concentrations of thrombin, while it reached a plateau at 0.5 U/mL. […] Moreover, it was clear from Fig. 2d that the maximum inhibitory effect of QSYQ sample (I1 of Table 1 in this assay) on thrombin was observed after 60 min of incubation. Therefore, to achieve favorable response and prevent signal saturation, optimal assay conditions for thrombin were determined to be 0.2 U/mL, 0.31 mM, 30 min and 60 min for the final concentrations of thrombin and S-2238, substrate reaction time and incubation time, respectively. […] In this assay, the concentrations of ACE and FAPGG were finally set at 0.027 U/mL and 0.72 mM, where the background value was lower and the reaction time was relatively shorter (30 min).
The optimized protocol was first applied to assess the quality of 11 batches of QSYQ intermediates (Table 1). Enzyme inhibition (in percentages) was employed as an indicator of drug quality and calculated according to the following equations: thrombin inhibition (%) = [1 − (AQSYQ/Ablank)] × 100; ACE inhibition (%) = [1 − (ΔAQSYQ/ΔAblank)] × 100; where AQSYQ and Ablank were the absorbance of the test sample and the blank sample after the enzymatic reaction (the background value was subtracted), and ΔAQSYQ and ΔAblank were the absorbance decrease between 0 min and 30 min of the samples. A scatter plot was generated to display the inhibition result of thrombin and ACE simultaneously. […] Moreover, artificial abnormal samples I6, I7 and I8, each with one abnormal (pre-extracted) herb, presented relatively lower inhibitions compared with I1.
(§1) Thrombin (from human plasma), ACE (from rabbit lung), FAPGG and captopril were purchased from Sigma-Aldrich (St. Louis, USA). S-2238 was obtained from Aglyco (Beijing, China). AEBSF-HCl was purchased from Selleckchem (Houston, USA). Trizma base (Tris) was obtained from Sangon Biotech (Shanghai, China) and dimethyl sulfoxide (DMSO) from J&K Scientific (Beijing, China). All other chemicals were purchased from Sinopharm Chemical (Shanghai, China) unless otherwise indicated. 0.2 M Phosphate buffer (PB, pH 6.5), and 50 mM Tris-HCl buffer (200 mM NaCl, pH 8.3) were prepared as assay buffers for thrombin and ACE, respectively.
MBs (10 mg/mL) were diluted 10 times in PB or Tris-HCl buffer, and 10 μL of the diluted MBs (1 mg/mL) were injected into one channel of the chip using a syringe infusion pump (Harvard Apparatus, USA) and retained by an external magnet. Then, 10 μL of thrombin or ACE solution was added and incubated with MBs for two hours at room temperature to form enzyme-MB complexes. The magnet was manually controlled to move MBs back and forth to enhance the ratio of reaction. Subsequently, MBs were washed twice in assay buffer and magnetically transferred to the other channel through the fluidic bridge, whose opening and closing was controlled by a pneumatic valve. Next, 10 μL of sample solutions of tested drug and 10 μL of enzymatic substrate were sequentially infused to the channel by the pump and incubated with the enzyme. When the enzymatic reaction was finished, the MBs were retained in the channel, and air was injected into the channel from the inlet using a syringe to push all the reacted solution to a 384-well plate. The absorbance of the solution was then monitored at 405 nm (for S-2238) or 340 nm (for FAPGG) using an Infinite F200 spectrophotometer (Tecan, Männedorf, Switzerland). Moreover, after detection, the reaction channel was washed three times by assay buffer to remove unbound constituents. […]

ACE (from rabbit lung) [2] = biological target: T2, ACE (from rabbit lung) (Oryctolagus cuniculus, UniProt P12822); assay: on-chip ACE inhibition assay (FAPGG hydrolysis, absorbance decrease 340 nm); assay type: biochemical; parameters: key to IC50 (μM) or inhibition rate: /: No obvious inhibition observed; conditions: for IC50 (μM) or inhibition rate: symbol / = no obvious inhibition
T2 construct: ACE (from rabbit lung); purchased Sigma-Aldrich; host or cells: rabbit lung
T2 sequence (P12822 34-1310): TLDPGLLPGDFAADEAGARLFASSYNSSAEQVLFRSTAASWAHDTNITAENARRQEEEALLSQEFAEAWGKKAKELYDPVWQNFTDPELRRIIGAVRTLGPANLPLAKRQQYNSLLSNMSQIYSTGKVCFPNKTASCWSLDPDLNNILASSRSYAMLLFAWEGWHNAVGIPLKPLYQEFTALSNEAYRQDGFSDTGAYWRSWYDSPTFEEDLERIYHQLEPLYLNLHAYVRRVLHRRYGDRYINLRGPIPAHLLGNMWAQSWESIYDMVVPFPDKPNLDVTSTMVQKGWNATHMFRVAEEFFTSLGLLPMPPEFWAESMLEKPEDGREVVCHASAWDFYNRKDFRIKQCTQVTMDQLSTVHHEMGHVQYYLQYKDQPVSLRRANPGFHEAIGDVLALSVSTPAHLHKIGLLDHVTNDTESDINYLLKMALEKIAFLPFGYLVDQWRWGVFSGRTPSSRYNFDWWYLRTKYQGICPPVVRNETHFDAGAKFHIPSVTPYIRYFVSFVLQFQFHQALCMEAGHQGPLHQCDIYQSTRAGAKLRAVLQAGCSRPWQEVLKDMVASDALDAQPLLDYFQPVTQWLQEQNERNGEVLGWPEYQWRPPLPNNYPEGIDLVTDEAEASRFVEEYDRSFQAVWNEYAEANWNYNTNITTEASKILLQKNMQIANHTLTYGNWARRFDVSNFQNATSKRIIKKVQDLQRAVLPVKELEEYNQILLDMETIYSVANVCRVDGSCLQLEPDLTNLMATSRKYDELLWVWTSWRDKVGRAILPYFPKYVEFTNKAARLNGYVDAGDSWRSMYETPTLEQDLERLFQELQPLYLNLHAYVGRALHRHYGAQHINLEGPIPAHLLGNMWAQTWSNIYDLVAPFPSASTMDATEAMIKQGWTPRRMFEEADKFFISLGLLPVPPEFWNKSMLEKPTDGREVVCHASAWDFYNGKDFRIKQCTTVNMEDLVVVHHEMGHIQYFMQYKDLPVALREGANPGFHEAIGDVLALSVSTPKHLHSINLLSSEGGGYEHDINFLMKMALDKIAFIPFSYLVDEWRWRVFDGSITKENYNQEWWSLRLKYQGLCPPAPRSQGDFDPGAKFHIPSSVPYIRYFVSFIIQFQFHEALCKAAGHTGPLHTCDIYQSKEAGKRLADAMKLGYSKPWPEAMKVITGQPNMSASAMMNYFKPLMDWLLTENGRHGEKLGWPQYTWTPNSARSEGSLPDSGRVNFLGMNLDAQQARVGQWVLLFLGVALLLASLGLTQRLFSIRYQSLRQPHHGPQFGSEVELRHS
Method: To enhance the performance of the on-chip assay, experimental parameters such as concentrations of enzymes and substrates, substrate reaction time, and incubation time of samples and enzymes were stepwise optimized.
The optimized protocol was first applied to assess the quality of 11 batches of QSYQ intermediates (Table 1). Enzyme inhibition (in percentages) was employed as an indicator of drug quality and calculated according to the following equations: thrombin inhibition (%) = [1 − (AQSYQ/Ablank)] × 100; ACE inhibition (%) = [1 − (ΔAQSYQ/ΔAblank)] × 100; where AQSYQ and Ablank were the absorbance of the test sample and the blank sample after the enzymatic reaction (the background value was subtracted), and ΔAQSYQ and ΔAblank were the absorbance decrease between 0 min and 30 min of the samples.
as §1, with “S-2238 was obtained from Aglyco (Beijing, China).” left out
MBs (10 mg/mL) were diluted 10 times in PB or Tris-HCl buffer, and 10 μL of the diluted MBs (1 mg/mL) were injected into one channel of the chip using a syringe infusion pump (Harvard Apparatus, USA) and retained by an external magnet. Then, 10 μL of thrombin or ACE solution was added and incubated with MBs for two hours at room temperature to form enzyme-MB complexes. The magnet was manually controlled to move MBs back and forth to enhance the ratio of reaction. Subsequently, MBs were washed twice in assay buffer and magnetically transferred to the other channel through the fluidic bridge, whose opening and closing was controlled by a pneumatic valve. Next, 10 μL of sample solutions of tested drug and 10 μL of enzymatic substrate were sequentially infused to the channel by the pump and incubated with the enzyme. When the enzymatic reaction was finished, the MBs were retained in the channel, and air was injected into the channel from the inlet using a syringe to push all the reacted solution to a 384-well plate. […] Moreover, after detection, the reaction channel was washed three times by assay buffer to remove unbound constituents. 20 μL of 80% aqueous methanol was then injected and incubated with MBs for one hour to dissociate the bound constituents. The resulting solutions of replicates were combined, evaporated by a centrifugal evaporator, reconstituted in 80% aqueous methanol, centrifuged at 10,000 rpm for 10 min, and analyzed by LC-MS for chemical identification.

ACE (from rabbit lung) [3] = biological target: T2, ACE (from rabbit lung); assay: on-chip affinity screening, binding degree by LC-MS peak area vs protein-free control (ACE); conditions: for ACE; [(As − Ac)/As] × 100, sample vs protein-free control, EIC peak area
Excerpt: In addition to quality assessment, the microfluidic chip can also function as “affinity chromatography” to identify bioactive constituents from botanical drugs in a convenient and efficient manner. After the bioassay, the bound phytochemicals were dissociated from the enzymes and accurately identified by LC-MS. The material used for the chambers in microfluidic system, polydimethylsiloxane (PDMS), is apt to adsorb small molecules nonspecifically, thus a protein-free control was applied to reflect the degree of nonspecific binding of compounds to the chip. Peak areas were obtained from the extracted ion chromatography (EIC) in an ion-trap mass spectrometry (IT-MS), and binding degree (binding degree % = [(As − Ac)/As] × 100, where As and Ac were the peak area in the sample and control, respectively) was calculated to indicate binding specificity. […] All these peaks were unambiguously confirmed via comparisons with chemical standards in terms of retention time and mass spectra (Table 2), and five thrombin inhibitors (danshensu, salvianolic acid B, salvianolic acid C, rosmarinic acid and ginsenoside Rg1) and six ACE inhibitors (astragaloside IV, ononin, formononetin, calycosin, danshensu and salvianolic acid B) were preliminarily identified. […] Enzyme inhibition assays of these hit compounds were then performed to verify the screening results. […] Compounds showing an inhibition rate over 70% were subjected to IC50 measurement.
MBs (10 mg/mL) were diluted 10 times in PB or Tris-HCl buffer, and 10 μL of the diluted MBs (1 mg/mL) were injected into one channel of the chip using a syringe infusion pump (Harvard Apparatus, USA) and retained by an external magnet. Then, 10 μL of thrombin or ACE solution was added and incubated with MBs for two hours at room temperature to form enzyme-MB complexes. The magnet was manually controlled to move MBs back and forth to enhance the ratio of reaction. Subsequently, MBs were washed twice in assay buffer and magnetically transferred to the other channel through the fluidic bridge, whose opening and closing was controlled by a pneumatic valve. Next, 10 μL of sample solutions of tested drug and 10 μL of enzymatic substrate were sequentially infused to the channel by the pump and incubated with the enzyme. When the enzymatic reaction was finished, the MBs were retained in the channel, and air was injected into the channel from the inlet using a syringe to push all the reacted solution to a 384-well plate. The absorbance of the solution was then monitored at 405 nm (for S-2238) or 340 nm (for FAPGG) using an Infinite F200 spectrophotometer (Tecan, Männedorf, Switzerland). Moreover, after detection, the reaction channel was washed three times by assay buffer to remove unbound constituents. 20 μL of 80% aqueous methanol was then injected and incubated with MBs for one hour to dissociate the bound constituents. The resulting solutions of replicates were combined, evaporated by a centrifugal evaporator, reconstituted in 80% aqueous methanol, centrifuged at 10,000 rpm for 10 min, and analyzed by LC-MS for chemical identification.
An Agilent 1100 HPLC system (Agilent Technologies, Waldbronn, Germany) coupled with an LCQ Deca XP^plus IT-MS (Thermo Finnigan, San Jose, CA, USA) equipped with an electrospray ionization (ESI) interface was employed for structure elucidation of the bounded constituents. The analysis was performed in negative ionization mode under following operation parameters: scan range m/z 100–1500; capillary voltage −15 V; source voltage −3 kV; capillary temperature 350 °C; sheath gas (N2) 60 arb; auxiliary gas (N2) 20 arb.

NCCc1ccc(S(=O)(=O)F)cc1 [AEBSF-HCl, reference compound]
IC50 [1]: 3.91 µM

CC(C)(O)[C@@H]1CC[C@](C)([C@H]2[C@@H](O)C[C@@]3(C)[C@@H]4C[C@H](O[C@@H]5O[C@H](CO)[C@@H](O)[C@H](O)[C@H]5O)[C@H]5C(C)(C)[C@@H](O[C@@H]6OC[C@@H](O)[C@H](O)[C@H]6O)CC[C@@]56C[C@@]46CC[C@]23C)O1 [Astragaloside IV]
IC50 (μM) or inhibition rate (ACE (from rabbit lung) [2]; for ACE): /^g
Binding degree (%) (ACE (from rabbit lung) [3]): 28.3^d %

COc1ccc(-c2coc3cc(O)ccc3c2=O)cc1O [Calycosin]
IC50 (μM) or inhibition rate (ACE (from rabbit lung) [2]; for ACE): /^g
Binding degree (%) (ACE (from rabbit lung) [3]): 19.1^d %

COc1ccc(-c2coc3cc(O)ccc3c2=O)cc1 [Formononetin]
IC50 (μM) or inhibition rate (ACE (from rabbit lung) [2]; for ACE): /^g
Binding degree (%) (ACE (from rabbit lung) [3]): 53.8^d %

COc1ccc(-c2coc3cc(O[C@@H]4O[C@H](CO)[C@@H](O)[C@H](O)[C@H]4O)ccc3c2=O)cc1 [Ononin]
ACE inhibition (in words) (ACE (from rabbit lung) [2]; at tested concentrations): showed ACE inhibitions
inhibition rate (ACE (from rabbit lung) [2]; for ACE, maximum inhibition rate observed in the assay): 30.6%^d
Binding degree (%) (ACE (from rabbit lung) [3]): 52.6^d %
